Measurements reported in patent US20260283986A1, “NOVEL RAS INHIBITORS” (KHR Biotec GmbH, priority 2022, published 2026).
Structures can show the parent of a compound that is named as a salt.

Legend:
Format in all cases: cell-based
SNF96.2 cells = assay: RASOpathie-Model, MTT assay for cell viability in 96 well cell culture plate; conditions: SNF96.2, 48 h treatment
Procedure: FIG. 5: RASOpathie-Model of Alexandrine dihydrochloride; MTT assay for cell viability in 96 well cell culture plate Cells were treated with Alexandrine dihydrochloride for 48 h and cell viability was evaluated by MTT assay. DMSO-treated cells were set as 1. The results shown are mean±SEM from 3 independent experiments.

[1] = tested on: BaF3 KRAS G12C/Y96D cells; assay: MTT assay for cell viability in 96 well cell culture plate; conditions: Mus musculus, 48 h treatment
Procedure: (§1) FIGS. 4a) and 4b): MTT assay for cell viability in 96 well cell culture plate Cells were treated with Alexandrine dihydrochloride for 48 h and cell viability was evaluated by MTT assay. DMSO-treated cells were set as 1. The results shown are mean±SEM from 3 independent experiments.

BaF3 KRAS G12C cells = assay: as above; conditions: Mus musculus, 48 h treatment
Procedure: as §1

[2] = tested on: KRAS mutants (G12V, G12C, G12D, G12C/Y96D); assay: NanoBiT assay for the RAS GTP-loading in HeLa cells (LgBit-KRAS mutants / SmBit-CRAF-RBD); conditions: 2 h in serum-free DMEM, normalized to DMSO
Procedure: FIG. 3: NanoBit assay for RAS activation (G12V, G12C, G12D, G12C/Y96D,)
NanoBiT assay for the RAS GTP-loading was performed in HeLa cells transfected with LgBit-KRAS mutants and SmBit-CRAF-RBD. Cells were treated with Alexandrine dihydrochloride for 2 h in serum-free DMEM. After incubation, the substrate for NanoLuc was added, and the luminescence was measured in a multiplate reader. Data were normalized to cells transfected with the indicated mutant and exposed to DMSO for 2 h. DMSO-treated cells were set as 1. The bars represent mean±SEM from 3 independent experiments.

HT1080 cells = assay: Soft agar colony formation assay, colonies stained with MTT; conditions: Homo sapiens, HT-1080; HT1080, growth in soft agar, MTT absorbance at 570 nm, 3 independent experiments
Procedure: (§2) Metabolic activity was quantified using Cell Proliferation Kit I (Roche, Basel, Switzerland). Cells were seeded in 96-well cell culture plates, using 5000 cells per well for NCI-H358 cells. After treatment, 10 μl of MTT solution was added and incubated for 2 h in CO2 incubator. Then 100 μl of solubilization buffer was added to each well and incubated overnight in CO2 incubator. Cell viability, assessed by the amount of metabolized MTT, was quantified by measuring absorbance at 570 nm. MTT assay for the growth of different tumor cell lines with RAS mutations in soft agar Alexandrine dihydrochloride. NCI-H358, H358, H2122, ASPC-1, HCT-116, T24 and HT1080 cells were used for the soft agar colony formation assay. After the treatment with Alexandrine dihydrochloride, the colonies were stained with MTT and the value was quantified by measuring absorbance at 570 nm after solubilization. The results represent mean±SSEM from 3 independent experiments.

NCI-H358 cells = assay: as above; conditions: Homo sapiens; NCI-H358, growth in soft agar, MTT absorbance at 570 nm, 3 independent experiments
Procedure: as §2

HCT-116 cells = assay: as above; conditions: Homo sapiens; HCT-116, growth in soft agar, MTT absorbance at 570 nm, 3 independent experiments
Procedure: as §2

T24 cells = assay: as above; conditions: Homo sapiens, T-24; T24, growth in soft agar, MTT absorbance at 570 nm, 3 independent experiments
Procedure: as §2

NCI-H2122 cells = assay: as above; conditions: Homo sapiens; NCI-H2122, growth in soft agar, MTT absorbance at 570 nm, 3 independent experiments
Procedure: as §2

ASPC1 cells = assay: as above; conditions: Homo sapiens; ASPC1, growth in soft agar, MTT absorbance at 570 nm, 3 independent experiments
Procedure: as §2

NRAS G12V = NRAS G12V (Homo sapiens, UniProt P01111, G12V); assay: NanoBit assay for RAS activation (LgBiT-RAS / SmBiT-CRAF RBD); conditions: NRAS G12V with CRAF RBD, 2 h with inhibitor in serum free DMEM
NRAS G12V, sequence (P01111 1-186 G12V): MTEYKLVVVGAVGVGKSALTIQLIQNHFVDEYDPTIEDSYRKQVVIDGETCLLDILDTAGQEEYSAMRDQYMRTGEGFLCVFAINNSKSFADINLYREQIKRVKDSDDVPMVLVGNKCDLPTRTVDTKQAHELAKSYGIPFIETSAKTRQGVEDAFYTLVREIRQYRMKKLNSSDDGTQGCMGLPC
Procedure: (§3) FIGS. 1a) and 1b): NanoBit assay for RAS activation (KRAS G12V, NRAS G12V, HRAS G12V) N-terminal LgBiT and C-terminal SmBiT construct was purchased from Promega and K, N and HRAS G12V (full length) was cloned with Xho I and Bgl II to LgBit and CRAF Ras binding domain (1-149) was cloned with EcoRI and Bgl II to SmBit. For transfections, 1 μg or 2 μg of (12 well/6 well) plasmids were transfected into cells with 0.5 mM of PEI reagent in 100 μl or 200 μl PBS. One day after transfection, cells were harvested and seeded into 96 well white plates, half area (Greiner). After an additional day the medium was changed to serum free DMEM and the cells were incubated for 2 h with inhibitor. NanoGlo assay was performed according to the manufacturer's instructions. The luminescence was measured using Tecan infinite (Tecan).

HRAS G12V = HRAS G12V (Homo sapiens, UniProt P01112, G12V); assay: as above; conditions: HRAS G12V with CRAF RBD, 2 h with inhibitor in serum free DMEM
HRAS G12V, sequence (P01112 1-186 G12V): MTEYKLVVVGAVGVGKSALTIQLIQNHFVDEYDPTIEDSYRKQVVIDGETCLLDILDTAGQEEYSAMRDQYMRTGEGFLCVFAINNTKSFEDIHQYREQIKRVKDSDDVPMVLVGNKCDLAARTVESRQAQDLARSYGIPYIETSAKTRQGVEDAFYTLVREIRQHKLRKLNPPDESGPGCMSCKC
Procedure: as §3

KRAS G12V = KRAS G12V (Homo sapiens, UniProt P01116, G12V); assay: as above; conditions: KRAS G12V with CRAF RBD, 2 h with inhibitor in serum free DMEM
KRAS G12V, sequence (P01116 1-186 G12V): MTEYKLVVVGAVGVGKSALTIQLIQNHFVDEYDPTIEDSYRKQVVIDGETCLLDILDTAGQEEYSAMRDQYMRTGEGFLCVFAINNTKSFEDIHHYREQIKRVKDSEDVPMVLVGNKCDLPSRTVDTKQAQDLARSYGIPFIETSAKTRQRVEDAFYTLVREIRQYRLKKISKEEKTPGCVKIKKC
Procedure: as §3

Compound `CCCCC(CC)CNC(=N)NC(=N)NCCCCCCNC(=N)NC(=N)NCC(CC)CCCC` (stereo not shown) [Alexandrine dihydrochloride, 1,1′-Hexamethylenebis[5-(2-ethylhex-1-yl)]biguanide dihydrochloride] has an IC50 (SNF96.2 cells) of 0.35 µM, an IC50 [1] of 1.54 µM and an IC50 (BaF3 KRAS G12C cells) of 1.17 µM. The “inhibition of RAS activation of KRAS mutants (NanoBiT luminescence)” value [2] was “inhibits different RAS-isoforms”, the IC50 (HT1080 cells) was 0.31 µM and the IC50 (NCI-H358 cells) was 1.28 µM. For the same compound, the IC50 (HCT-116 cells) was 1.91 µM, the IC50 (T24 cells) was 1.7 µM and the IC50 (NCI-H2122 cells) was 1.61 µM. The IC50 (ASPC1 cells) was 1.76 µM, the “inhibition of N-RAS activation (NanoBit luminescence)” value (NRAS G12V) was “inhibits” and the “inhibition of H-RAS activation (NanoBit luminescence)” value (HRAS G12V) was “inhibits”. For the same compound, the “inhibition of K-RAS activation (NanoBit luminescence)” value (KRAS G12V) was “inhibits”.
